From ChEMBL document CHEMBL1145365, “The discovery of long acting beta2-adrenoreceptor agonists” (Bioorg Med Chem Lett, 2007)

Experiments:
[1] = target: Beta-2 adrenergic receptor (Cavia porcellus) (UniProt Q8K4Z4); experiment: Effect on guinea pig trachea model assessed as duration of muscle tone; assay type: functional, tissue-based; conditions: Muscle tissue
[2] = target: Beta-2 adrenergic receptor (Cavia porcellus) (UniProt Q8K4Z4); experiment: Agonist potency at beta-2 adrenoceptor in guinea pig trachea model relative to salmeterol; assay type: functional, tissue-based
[3] = Distribution coefficient, log D of the compound; conditions: octanol/water
[4] = Half life in human liver microsome at 1 uM
[5] = Volume of distribution in iv dosed rat; assay type: ADME, organism-based; conditions: in vivo, read-out: Vdss
[6] = Half life in iv dosed rat; assay type: ADME, organism-based; conditions: in vivo
[7] = in vitro; conditions: human, Caco-2, pH 7.4
Description: Permeability from apical to basolateral side of the Caco-2 cell membrane at 25 uM in pH 7.4

[8] = Clearance in iv dosed rat; assay type: ADME, organism-based; conditions: in vivo
[9] = target: Beta-2 adrenergic receptor (Homo sapiens, UniProt P07550)
Sequence of Beta-2 adrenergic receptor (P07550 whole entry): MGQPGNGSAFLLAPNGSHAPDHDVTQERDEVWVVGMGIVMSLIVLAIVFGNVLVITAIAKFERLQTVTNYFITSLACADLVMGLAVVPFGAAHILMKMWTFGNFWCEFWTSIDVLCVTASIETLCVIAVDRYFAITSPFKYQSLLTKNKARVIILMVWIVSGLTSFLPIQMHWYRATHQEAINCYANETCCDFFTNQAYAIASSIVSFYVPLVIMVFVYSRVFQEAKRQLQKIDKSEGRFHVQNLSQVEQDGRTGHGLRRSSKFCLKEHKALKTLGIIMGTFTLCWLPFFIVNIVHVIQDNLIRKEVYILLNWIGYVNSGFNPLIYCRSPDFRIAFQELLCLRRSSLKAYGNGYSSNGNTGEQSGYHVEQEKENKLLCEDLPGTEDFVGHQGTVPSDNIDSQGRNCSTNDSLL
Description: Agonist activity at human recombinant beta-2 adrenoceptor expressed in CHO cells assessed as elevation of cAMP

Sequence of Beta-2 adrenergic receptor (Cavia porcellus) (Q8K4Z4 whole entry, looked up): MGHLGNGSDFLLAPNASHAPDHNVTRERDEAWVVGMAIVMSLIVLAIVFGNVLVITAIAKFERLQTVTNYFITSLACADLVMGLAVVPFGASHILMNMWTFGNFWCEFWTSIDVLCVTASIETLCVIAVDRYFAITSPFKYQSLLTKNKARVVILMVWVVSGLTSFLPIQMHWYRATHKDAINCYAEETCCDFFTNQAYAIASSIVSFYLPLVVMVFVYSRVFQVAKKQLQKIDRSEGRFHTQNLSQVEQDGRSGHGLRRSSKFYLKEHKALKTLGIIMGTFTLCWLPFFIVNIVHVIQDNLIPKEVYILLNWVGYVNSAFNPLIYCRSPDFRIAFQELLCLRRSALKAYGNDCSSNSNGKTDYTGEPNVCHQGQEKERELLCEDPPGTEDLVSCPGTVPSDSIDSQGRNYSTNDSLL

Q: What does the source list for Cc1ccc(CNC(=O)Cc2cccc(C[C@@H](C)NC[C@H](O)c3ccc(O)c(CO)c3)c2)cc1C?
A: TIME [1]: 4.6 h; Activity [2]: 0.5; logD [3]: 2.2; half-life at 1 µM ([4]; liver microsomes): 10 min

Q: With OCc1cc([C@@H](O)CNCCCCCCOCCCCc2ccccc2)ccc1O [SALMETEROL] as the compound, how does the Activity [2] read?
A: 1

Q: And the logD [3]?
A: 2.5

Q: What about the Vd [5] of the same compound?
A: 16.6 L/kg

Q: What does the source list for COc1cccc(OC)c1CNC(=O)Cc1cccc(C[C@@H](C)NC[C@H](O)c2ccc(O)c(CO)c2)c1?
A: TIME [1]: 1.5 h; Activity [2]: 0.3; logD [3]: 0.8

Q: For C[C@H](Cc1cccc(CC(=O)NCc2c(F)cccc2Cl)c1)NC[C@H](O)c1ccc(O)c(CO)c1, which TIME [1] is on record?
A: 5.2 h

Q: What about the Activity [2] of the same compound?
A: 0.07

Q: For C[C@H](Cc1cccc(CC(=O)NCc2ccc(Cl)c(Cl)c2)c1)NC[C@H](O)c1ccc(O)c(CO)c1, which TIME [1] is on record?
A: 9 h

Q: And the Activity [2]?
A: 0.4

Q: What about the half-life [6] of the same compound?
A: 90 min

Q: And the Papp A→B at 25 µM [7]?
A: 1 ×10⁻⁶ cm/s

Q: And the logD [3]?
A: 2.6

Q: What about the half-life at 1 µM ([4]; liver microsomes) of the same compound?
A: 4 min

Q: What about the Vd [5] of the same compound?
A: 16.6 L/kg

Q: And the clearance [8]?
A: 123 mL/min/kg

Q: With C[C@H](Cc1cccc(CC(=O)NCc2ccc(OC(F)(F)F)cc2)c1)NC[C@H](O)c1ccc(O)c(CO)c1 as the compound, how does the TIME [1] read?
A: 8.1 h

Q: What about the Activity [2] of the same compound?
A: 1

Q: And the logD [3]?
A: 2.4

Q: And the half-life at 1 µM ([4]; liver microsomes)?
A: 15 min

Q: Which TIME [1] does the source give for C[C@H](Cc1cccc(CC(=O)NCc2cccc3ccccc23)c1)NC[C@H](O)c1ccc(O)c(CO)c1 here?
A: 3.9 h

Q: And the Activity [2]?
A: 1

Q: And the logD [3]?
A: 1.5

Q: And the half-life at 1 µM ([4]; liver microsomes)?
A: 2 min

Q: Which results are given for C[C@H](Cc1cccc(CC(=O)NCc2cc(Cl)cc(Cl)c2)c1)NC[C@H](O)c1ccc(O)c(CO)c1?
A: TIME [1]: 7.2 h; Activity [2]: 0.5; Papp A→B at 25 µM [7]: 1 ×10⁻⁶ cm/s; logD [3]: 2.3

Q: For C[C@H](Cc1cccc(CC(=O)NCc2cc(C(F)(F)F)ccc2F)c1)NC[C@H](O)c1ccc(O)c(CO)c1, which TIME [1] is on record?
A: 6.6 h

Q: And the Activity [2]?
A: 0.9

Q: And the half-life at 1 µM ([4]; microsomes)?
A: 9 min

Q: What does the source list for CC(C)(Cc1cccc(CC(=O)NCc2ccccc2)c1)NC[C@H](O)c1ccc(O)c(CO)c1?
A: EC50 [9]: 0.02 nM; logD [3]: 1

Q: Which results are given for O=C(Cc1cccc(CCNC[C@H](O)c2ccc(O)c(CO)c2)c1)NCc1ccccc1?
A: EC50 [9]: 0.096 nM; logD [3]: 0.4

Q: Which results are given for C[C@H](Cc1cccc(CC(=O)NCc2ccccc2)c1)NC[C@H](O)c1ccc(O)c(CO)c1?
A: EC50 [9]: 0.096 nM; logD [3]: 0.8

Q: For C[C@H](Cc1cccc(CC(=O)NC2Cc3ccccc3C2)c1)NC[C@H](O)c1ccc(O)c(CO)c1, which TIME [1] is on record?
A: 5.4 h

Q: And the Activity [2]?
A: 0.1

Q: And the Papp A→B at 25 µM [7]?
A: 1 ×10⁻⁶ cm/s

Q: And the logD [3]?
A: 1.6
